Assay results from paper PMC10341893, “Motifs in Natural Products as Useful Scaffolds to Obtain Novel Benzo[d]imidazole-Based Cannabinoid Type 2 (CB2) Receptor Agonists” (International Journal of Molecular Sciences, 2023).
Like-named read-outs stand apart in the source and are kept apart here.

Legend:
hCB2 receptor [1] = biological target: T1, hCB2 receptor (Homo sapiens, UniProt P34972); assay: cAMP accumulation assay (forskolin-stimulated, CHO cells expressing hCB2); format: cell-based
Protocol: Compounds were further characterized through in vitro functional assays by measuring the variation in forskolin-induced cAMP accumulation (Eurofins Cerep services). The tested compounds diminished the accumulation of cyclic AMP, indicating activity as agonists (Figure 3).
In vitro pharmacology assay for human CB2 agonist effect in CHO cells was performed by Eurofins Cerep (Celle-Lévescault, France). Five compounds were tested at several concentrations for EC50 determination. […] CHO cells stably expressing hCB2 receptor were used to determine agonist effect of compounds, based on the measurement of cAMP level. Assay protocol is adapted from Felder et al..

human recombinant CB1R = biological target: T2, human recombinant CB1R (Homo sapiens, UniProt P21554); assay: CB1 receptor binding assay ([3H]-CP-55,940 displacement, HEK cell membranes); conditions: [3H]-CP-55,940 displacement; means ± SD of 3 independent experiments in duplicate; read-out: Ki CB1
T2 construct: expressed in transfected cells; host or cells: HEK cells
Protocol: (§1) To assess the compound selectivity between CB1 and CB2 receptors, binding constants were determined through a radioligand displacement assay by testing concentration–response curves for compounds 5, 6, 16, 19, and 22. As shown in Figure 4 and summarized in Table 4, three of the tested compounds (5, 19, and 22) presented moderate binding affinity in a low micromolar range to both CB1 and CB2 receptors.
(§2) CB1 and CB2 receptor binding assays were performed exactly as previously described. […] Displacement curves were performed by incubating [^3H]-CP-55 940 (90 min, 30 °C) with increasing concentrations of compounds (10 nM−10 μM). Ki values were calculated by applying the Cheng−Prusoff equation to the IC50 values (obtained by GraphPad, Prism Software 9.5) for the displacement of the bound radioligand by compounds.

HEK-293 cells = assay: Neutral red uptake assay, HEK-293; format: cell-based; conditions: Homo sapiens, HEK293
Protocol: (§3) Compound 6 was tested through a neutral red uptake assay, and cell viability was measured. Neutral red consists of a cationic dye that accumulates in lysosomes. Uptake of neutral red depends on a viable cell’s capacity to maintain acidic pH in the interior of lysosomes.
(§4) MCF-7 and HEK-293 cell lines were maintained at 37 °C in a humidified atmosphere containing 5% CO2. MCF-7 was grown in Roswell Park Memorial Institute (RPMI) 1640 and HEK-293 was grown in Dulbecco’s modified Eagle medium and Ham’s F-12 medium (DMEM/F12). All media was supplemented with 10% fetal bovine serum, penicillin (100 U/mL), streptomycin ([…]), and non-essential amino acids MEM 1×.
(§5) Cells were seeded in 100 μL of media at a density of 10^4 cells/well in 96-well microtiter plates. Solutions of compounds were previously prepared in DMSO, and 1 μL of the corresponding solution was added to each well. The final volume of each well was adjusted to 200 μL. After 72 h of incubation, culture media were removed, and 100 μL of 10 μg/mL neutral red solution prepared in culture media was added to each well and incubated for 2 h at 37 °C in a humidified atmosphere containing 5% CO2. […] The plate was placed for 15 min in a shaker, and fluorescence was measured using Cytation 5 apparatus (Biotek, Winooski, VT, USA) at 530/645 nm excitation/emission wavelengths.

MCF-7 cells = assay: Neutral red uptake assay, MCF-7; format: cell-based; conditions: Homo sapiens, MCF7, 72 h incubation, triplicate, read-out: IC50 Viability
Protocol: as §3, §4, §5

hCB2 receptor [2] = biological target: T1, hCB2 receptor; assay: Single-dose radioligand displacement assay ([3H]WIN55212-2); format: binding; set-up: host or cells: CHO cells; conditions: membranes from recombinant CHO cells expressing human CB2, duplicate
Protocol: To assess ligand binding to CB2 receptors, radioligand displacement assay at a single dose (10 μM) was performed in membranes obtained from recombinant CHO cells expressing human CB2 receptors (Eurofins Cerep SA, France). Out of 26 compounds, more than 50% of the molecules presented >50% displacement, while 20% of the compounds (5, 6, 16, 19, 22) presented >80% displacement of radioligand binding at a 10 μM dose. Compounds 5, 6, 16, 19, and 22 were further tested for CB2 receptor activation (agonist activity, see below) and CB2/CB1 selectivity.
All membrane preparations for these studies were generated at Cerep Inc. according to standard protocols. Duplicate determinations were performed for each test compound. Compounds were dissolved in DMSO to generate a stock solution. Radioligand binding methods were adapted from Munro et al..

hCB2 receptor [3] = biological target: T1, hCB2 receptor; assay: CB2 receptor binding assay ([3H]-CP-55,940 displacement, HEK cell membranes); set-up: expressed in transfected cells; host or cells: HEK cells; conditions: [3H]-CP-55,940 displacement; means ± SD of 3 independent experiments in duplicate; read-out: Ki CB2
Protocol: as §1, §2

T1 sequence (P34972 whole entry): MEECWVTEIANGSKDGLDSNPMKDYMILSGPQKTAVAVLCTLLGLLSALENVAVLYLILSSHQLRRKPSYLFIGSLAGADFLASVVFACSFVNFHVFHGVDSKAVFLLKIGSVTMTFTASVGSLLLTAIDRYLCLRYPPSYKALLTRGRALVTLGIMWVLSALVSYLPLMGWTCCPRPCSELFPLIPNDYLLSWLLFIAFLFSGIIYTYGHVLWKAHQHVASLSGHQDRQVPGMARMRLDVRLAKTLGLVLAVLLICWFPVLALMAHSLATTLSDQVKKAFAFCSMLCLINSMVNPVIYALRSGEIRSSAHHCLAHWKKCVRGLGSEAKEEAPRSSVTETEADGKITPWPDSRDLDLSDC
T2 sequence (P21554 whole entry): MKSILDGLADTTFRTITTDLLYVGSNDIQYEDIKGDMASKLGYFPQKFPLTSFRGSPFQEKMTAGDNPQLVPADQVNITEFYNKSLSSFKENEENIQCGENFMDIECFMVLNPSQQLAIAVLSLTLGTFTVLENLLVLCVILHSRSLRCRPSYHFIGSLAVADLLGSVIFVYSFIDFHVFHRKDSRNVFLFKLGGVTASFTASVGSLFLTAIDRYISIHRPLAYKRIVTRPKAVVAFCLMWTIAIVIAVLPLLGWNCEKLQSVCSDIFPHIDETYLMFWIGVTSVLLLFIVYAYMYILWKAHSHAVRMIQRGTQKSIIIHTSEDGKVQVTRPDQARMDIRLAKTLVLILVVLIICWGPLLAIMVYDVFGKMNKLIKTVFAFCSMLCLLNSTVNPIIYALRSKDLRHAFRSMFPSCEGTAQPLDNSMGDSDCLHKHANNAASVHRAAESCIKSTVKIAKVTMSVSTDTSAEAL

Compound: CCn1c(OC2CC(C)CCC2C(C)C)nc2ccccc21 (stereo not drawn) [Compound 6, 1-ethyl-2-((2-isopropyl-5-methylcyclohexyl)oxy)-1H-benzo[d]imidazole]
- EC50 (hCB2 receptor [1]; recombinant CHO cells expressing hCB2, duplicate, read-out: EC50, inhibition of forskolin-stimulated cAMP accumulation): 0.00336 µM
- agonist activity at CB2 (cAMP accumulation) (hCB2 receptor [1]; recombinant cells expressing CB2 receptors): agonist activity was confirmed
- Ki (human recombinant CB1R): > 10 µM
- IC50 (HEK-293 cells; HEK-293, 72 h incubation, triplicate, read-out: IC50 Viability): 30 µM
- IC50 (HEK-293 cells; range over HEK-293 and MCF-7 cells, read-out: IC50 of toxicity): 30 to 38 µM
- IC50 (MCF-7 cells): 38 µM
- Inhibition (%) of [3H]WIN55212-2 specific binding (hCB2 receptor [2]; 10 µM single dose): 89%
- inhibition at 10 µM (hCB2 receptor [2]; read-out: Inhibition (%) of [3H]WIN55212-2 specific binding, 10 µM single dose): > 80%
- Ki (hCB2 receptor [3]): 0.44 ± 0.1 µM
